One test deals with huAPP/PS1 mice. Briefly: two-day water maze in aged huAPP/PS1 mice. Conditions: 200 ppm in food for three months, vs AD control. Format: in vivo. The method, then: The APPswe/PS1ΔE9 transgenic mice have been previously characterized. The line 85 mice carry two transgenes, the mouse/human chimeric APP/Swe, linked to Swedish FAD and human PS1ΔE9. At 20 months of age both male and female transgenic mice were fed a high fat diet (Harlan Tekland, Madison, WI, USA) with and without J147 (200 ppm, 10 mg/kg/day). Treatment continued for three months and was followed by behavior testing and sacrifice of mice for tissue harvesting. […] (Data not shown).
Spatial memory was determined using the two-day water maze in 23-month-old huAPPswe/PS1 transgenic mice fed J147 at 200 ppm in food for the previous three months. The protocol was adapted from a publication by Gulinello and colleagues. Water temperature remained at 27°C throughout the experiment. The goal platform was positioned 45 cm from the outside wall in the north-west quadrant of the maze for all groups and all trials. Day 1 of the two-day water maze procedure involved training the mice to find the platform using cues located around the pool within a 180 s time frame. […] The time it took each mouse to find the hidden platform was measured as escape latency. […] All trials were recorded using the EthoVision Software and statistics were computed using GraphPad Instat software (GraphPad Software, San Diego, CA, USA).

Another test concerns HT22 cells. The settings on record: 10 μM J147, one hour. The method, then: HT22 cells were plated in DMEM plus 10% FCS. The next day, the cells were treated with 10 μM J147 for 1 hr before RNA isolation.
RNA was isolated with the use of RNeasy Mini kit (Qiagen, #74104; Valencia, CA, USA) according to the manufacturer's instructions. Total RNA was quantified using the ND-1000 Nanodrop and assessed for quality using the ratios: A260/280 (range: 1.9 to 2.1) and A260/230 (range: 2.0 to 2.2, if <2.0, contamination), in addition to the Bioanalyzer (Agilent Technologies, Cedar Creek, TX, USA) if further quality assessment was required.
After RNA isolation for each sample, double stranded cDNA was synthesized from 500 ng total RNA and biotin-labeled using the GeneChip 3' IVT Express Kit (Affymetrix, Santa Clara, CA, USA, #901228-A) per the manufacturer's instructions and protocol. RNA was purified, quantified, fragmented randomly to an average size of 50 to 200 bases and hybridized to GeneChip® Mouse Genome 430 2.0 Arrays (Affymetrix,) consisting of over 45,000 probe sets representing more than 34,000 named mouse genes. The hybridization and processing of the GeneChips were conducted by Salk Institute's Functional Genomics Core Facility using the following systems from Affymetrix (Santa Clara, CA, USA): GeneChip® Hybridization Oven 640, GeneChip® Fluidics Station 450 to the wash and stain operation of Affymetrix GeneChip® arrays, and the GeneChip® Scanner 3000 7G.
Affymetrix Expression Console Software (version 1.0) was used to perform quality assessment of the microarray scan/experiments. Array data were normalized via scaling to adjust the average intensity of each array to be similar. GeneChips were analyzed by the GeneChip Operating Software (Affymetrix) with the default settings except that the target signal was set to 200 for GeneChip quality control. Raw data were analyzed through the gcRMA-algorithm using the Affymetrix package in R software for statistical computing and graphics. The median microarray intensity for all microarrays was normalized to 100, and probe sets with median intensities >100 were scored. Fold changes were calculated in Microsoft Excel Microsoft, Redmond, Washington, USA). Genes of interest and genes with the highest fold-changes were validated using Real-Time Quantitative PCR. The data discussed in this publication have been deposited in NCBI's Gene Expression Omnibus and are accessible through GEO Series accession number GSE45534 [26].

A further test deals with C57BL/6J mice. Briefly: two-day water maze, scopolamine induced memory impairment. Format: in vivo. Conditions: scopolamine 1 mg/kg i.p.; J147 200 ppm, donepezil 20 ppm in food for two weeks. The method, then: A total of 60 male mice aged eight weeks were housed 4 per cage and were divided into five groups with 12 mice per group. Treatments were administered in the food (TestDiet® 5015, Richmond, IN, USA) for a period of two weeks before commencement of behavioral testing. […] Following two weeks of treatment, memory impairment was induced by intraperitoneal (i.p.) injection of scopolamine (1 mg/kg) 30 minutes prior to each of the following behavioral tests: Y-maze, probe trial of the water maze and contextual and cued fear conditioning. Mice were allowed to rest for two days between each behavior test. All mice received scopolamine except for one of the control groups, which received saline as a control. Mice were sacrificed 24 hours after the last behavioral test for tissue harvesting.
Spatial memory was determined using the two-day water maze in 23-month-old huAPPswe/PS1 transgenic mice fed J147 at 200 ppm in food for the previous three months. The protocol was adapted from a publication by Gulinello and colleagues. Water temperature remained at 27°C throughout the experiment. […] The time it took each mouse to find the hidden platform was measured as escape latency. […] All trials were recorded using the EthoVision Software and statistics were computed using GraphPad Instat software (GraphPad Software, San Diego, CA, USA).

In another test the test system is APP/swePS1ΔE9 mice. On the set-up: method as in PMID 22194796. Conditions: cited from earlier work.

SMILES strings stand for the structures. Several values for one entry are separate records, joined by “and”; a condition that tells them apart may be missing. Equal values may be shown once.

Regarding `COc1cccc(/C=N/N(C(=O)C(F)(F)F)c2ccc(C)cc2C)c1` [J147, (E)-N-(2,4-dimethylphenyl)-2,2,2-trifluoro-N'-(3methoxybenzyli-dene) acetohydrazide], in the test with huAPP/PS1 mice, the “spatial navigational memory (escape latency, hidden platform Day 2)” value is listed as “significantly improved the spatial navigational memory”. Further, in the test with HT22 cells, the “Fold change: J147 (1 hr) vs Control, Egr1 mRNA” value is reported as 2.5 fold; the “Fold change: J147 (1 hr) vs Control, Egr3 mRNA” value was 8 fold and 8.0 fold; the “Fold change: J147 (1 hr) vs Control, Ngf mRNA” value is 2.8 fold; the “Fold change: J147 (1 hr) vs Control, No title (chr8:13161324 to 13161817)” value was 2.6 fold. In addition, the “Fold change: J147 (1 hr) vs Control, Spred2 mRNA” value with HT22 cells is 2.7 fold. In addition, the “spatial memory (time to find hidden platform)” value with C57BL/6J mice was “rescued this deficit in spatial memory”. Moreover, in the test with APP/swePS1ΔE9 mice (administered to three-month-old APP/swePS1ΔE9 mice for seven months), the “loss of synaptic proteins and cognitive decline” value was “prevents the loss of synaptic proteins and cognitive decline”. The “levels of BDNF in the hippocampus” value with APP/swePS1ΔE9 mice (huAPP/PS1 transgenic mice) is recorded as “increases the levels of BDNF”.

The values are drawn from PMC3706879, “The neurotrophic compound J147 reverses cognitive impairment in aged Alzheimer's disease mice” (Alzheimer's Research & Therapy, 2013).
